Test results: US9334246B2, “Substituted triazines for malaria treatment and chemoprophylaxis” (The United States of America, as represented by the …, priority 2013, dated 2016)

Legend:
Format in all cases: cell-based, Plasmodium falciparum
P. falciparum D6 = experiment: Malaria SYBR Green Fluorescence Assay, D6 strain; conditions: for D6: SYBR Green Assay
P. falciparum C235 = experiment: Malaria SYBR Green Fluorescence Assay, C235 strain; conditions: for C235: SYBR Green Assay
P. falciparum W2 = experiment: Malaria SYBR Green Fluorescence Assay, W2 strain; conditions: for W2: SYBR Green Assay

Compound	D6 (P. falciparum D6)	C235 (P. falciparum C235)	W2 (P. falciparum W2)	D6 (SYBR Green Assay IC50) (P. falciparum D6)	C235 (SYBR Green Assay IC50) (P. falciparum C235)	W2 (SYBR Green Assay IC50) (P. falciparum W2)
COc1ccc(-c2nc(N3CCCNCC3)nc(C(Cl)(Cl)Cl)n2)cc1 [Cmpd 101]	182 ng/mL	158 ng/mL	117 ng/mL			
CC(C)CN1CCC(CC1)NC1═NC(═NC(═N1)C(Cl)(Cl)Cl)C1═CC═C(Cl)C(Cl)═C1 [Compound 692]	32 ng/mL	43 ng/mL	24 ng/mL			
COc1ncccc1Nc1nc(N2CCN(C)CC2)nc(C(Cl)(Cl)Cl)n1 [Cmpd 353]				0.101 µg/mL	0.211 µg/mL	0.08 µg/mL
NC1CCN(CC1)C1═NC(═NC(═N1)C1═CC═C(C═C1)C1═CC═CC═C1)C(Cl)(Cl)Cl [Compound 634]				0.145 µg/mL	0.088 µg/mL	0.062 µg/mL
CN1CCC(CNc2nc(-c3cc(Cl)cc(Cl)c3)nc(C(Cl)(Cl)Cl)n2)CC1 [Cmpd 514]				0.079 µg/mL	0.028 µg/mL	0.026 µg/mL
CSc1ccc(-c2nc(NC(C)(C)CN)nc(C(Cl)(Cl)Cl)n2)cc1 [Cmpd 277]	406 ng/mL	312 ng/mL	364 ng/mL			
COc1ccccc1-c1nc(NCCc2ccncc2)nc(C(Cl)(Cl)Cl)n1 [Cmpd 146]	539 ng/mL	804 ng/mL	246 ng/mL			
CC1(C)C=Cc2cc(-c3nc(NCCN4CCCC4)nc(C(Cl)(Cl)Cl)n3)ccc2O1 [Cmpd 553]				0.01863 µg/mL	0.01596 µg/mL	0.01506 µg/mL
CN1CCN(c2nc(-c3ccc(N4CCCC4)cc3)nc(C(Cl)(Cl)Cl)n2)CC1 [Cmpd 427]				0.676 µg/mL	0.877 µg/mL	0.459 µg/mL
COc1ccccc1-c1nc(N2CCCNCC2)nc(C(Cl)(Cl)Cl)n1 [Cmpd 218]	104 ng/mL	73 ng/mL	38 ng/mL			
CCN1CCCC(Nc2nc(-c3ccc(OC)c4ccccc34)nc(C(Cl)(Cl)Cl)n2)C1 (stereo not drawn) [Cmpd 280]	138 ng/mL	193 ng/mL	76 ng/mL			
FC(F)(F)Oc1ccc(Nc2nc(NCCN3CCCC3)nc(C(Cl)(Cl)Cl)n2)cc1 [Compound 656, FC(F)(F)OC1═CC═C(NC2═NC(═NC(NCCN3CCCC3)═N2)C(Cl)(Cl)Cl)C═C1]	3 ng/mL	7 ng/mL	2 ng/mL			
CS(=O)(=O)c1ccc(-c2nc(NCCc3cccnc3)nc(C(Cl)(Cl)Cl)n2)cc1 [Cmpd 179]	471 ng/mL	680 ng/mL	201 ng/mL			
CC(C)(C)c1ccc(-c2nc(NCCc3cccnc3)nc(C(Cl)(Cl)Cl)n2)cc1 [Cmpd 175]	110 ng/mL	165 ng/mL	54 ng/mL			
NC1CCN(c2nc(-c3ccc(Cl)cc3)nc(C(Cl)(Cl)Cl)n2)CC1 [Compound 630, NC1CCN(CC1)C1═NC(═NC(═N1)C(Cl)(Cl)Cl)C1═CC═C(Cl)C═C1]				0.012 µg/mL	0.013 µg/mL	0.01 µg/mL
CC(C)N1CCC(CNc2nc(-c3ccc(-c4ccccc4)cc3)nc(C(Cl)(Cl)Cl)n2)CC1 [Cmpd 496]				0.029 µg/mL	0.014 µg/mL	0.015 µg/mL
CN1CCC(CNc2nc(-c3ccc(C(Cl)(Cl)Cl)cc3)nc(C(Cl)(Cl)Cl)n2)CC1 [Cmpd 511]				0.077 µg/mL	0.056 µg/mL	0.034 µg/mL
CSC1═CC═C(C═C1)C1═NC(═NC(═N1)C(Cl)(Cl)Cl)N1CCC(N)CC1 [Compound 626]				0.018 µg/mL	0.011 µg/mL	0.007 µg/mL
CN(C)CCCNc1nc(-c2ccc(-c3ccccc3)cc2)nc(C(Cl)(Cl)Cl)n1 [Cmpd 445]				0.151 µg/mL	0.189 µg/mL	0.116 µg/mL
CC1═CC═C(C═C1)C1═NC(═NC(═N1)C(Cl)(Cl)Cl)N1CCC(N)CC1 [Compound 623]				0.058 µg/mL	0.032 µg/mL	0.021 µg/mL
Clc1cccc(-c2nc(NCCN3CCCC3)nc(C(Cl)(Cl)Cl)n2)c1 [Cmpd 334]	9 ng/mL	15 ng/mL	2 ng/mL			
COc1ccc(-c2nc(NCC3CCN(C(C)C)CC3)nc(C(Cl)(Cl)Cl)n2)cc1OC [Cmpd 501]				0.362 µg/mL	0.241 µg/mL	0.094 µg/mL
CN(C)CCCNc1nc(C(Cl)(Cl)Cl)nc(C(Cl)(Cl)Cl)n1.ClC(Cl)(Cl)c1ccc(C(Cl)(Cl)Cl)cc1 [Cmpd 604]				0.224 µg/mL	0.628 µg/mL	0.363 µg/mL
NC1(CNC2═NC(═NC(═N2)C2═CC(Cl)═CC═C2)C(Cl)(Cl)Cl)CC1 [Compound 680]	100 ng/mL	98 ng/mL	35 ng/mL			

Compound	D6 (P. falciparum D6)	C235 (P. falciparum C235)	W2 (P. falciparum W2)	D6 (SYBR Green Assay IC50) (P. falciparum D6)	C235 (SYBR Green Assay IC50) (P. falciparum C235)	W2 (SYBR Green Assay IC50) (P. falciparum W2)
CC(C)N1CCC(CNc2nc(-c3ccc(S(C)(=O)=O)cc3)nc(C(Cl)(Cl)Cl)n2)CC1 [Cmpd 491]				0.048 µg/mL	0.034 µg/mL	0.018 µg/mL
CCN1CCC(CNc2nc(-c3cccc(Cl)c3)nc(C(Cl)(Cl)Cl)n2)CC1 [Cmpd 339]	34 ng/mL	41 ng/mL	14 ng/mL			
COc1cc(OC)cc(-c2nc(NCC3CCN(C(C)C)CC3)nc(C(Cl)(Cl)Cl)n2)c1 [Cmpd 502]				0.127 µg/mL	0.052 µg/mL	0.028 µg/mL
NC1(CNC2═NC(═NC(═N2)C2═CC(Cl)═CC(Cl)═C2)C(Cl)(Cl)Cl)CC1 [Compound 683]	727 ng/mL	795 ng/mL	503 ng/mL			
NC1(CNc2nc(-c3cccc(C(F)(F)F)c3)nc(C(Cl)(Cl)Cl)n2)CC1 [Compound 682, NC1(CNC2═NC(═NC(═N2)C2═CC(═CC═C2)C(F)(F)F)C(Cl)(Cl)Cl)CC1]	68 ng/mL	82 ng/mL	31 ng/mL			
COc1ccc(Nc2nc(N3CCN(C)CC3)nc(C(Cl)(Cl)Cl)n2)cn1 [Cmpd 345]	267 ng/mL	1100 ng/mL	199 ng/mL			
CCN1CCC(CNc2nc(-c3ccc(Cl)c(Cl)c3)nc(C(Cl)(Cl)Cl)n2)CC1 [Cmpd 257]	54 ng/mL	29 ng/mL	45 ng/mL			
CC(C)CN1CCC(CC1)NC1═NC(═NC(═N1)C1═CC═CC═C1)C(Cl)(Cl)Cl [Compound 704]	867 ng/mL	525 ng/mL	223 ng/mL			
COc1cc(OC)cc(-c2nc(NCC3(N)CCOCC3)nc(C(Cl)(Cl)Cl)n2)c1 [Cmpd 529]				0.059 µg/mL	0.055 µg/mL	0.055 µg/mL
ClC(Cl)(Cl)c1ccc(cc1)c2nc(NCc3ccncc3)nc(n2)C(Cl)(Cl)Cl [Compound 652]				0.385 µg/mL	0.876 µg/mL	0.301 µg/mL
CCN1CCC(CNc2nc(-c3ccc(OC)c4ccccc34)nc(C(Cl)(Cl)Cl)n2)CC1 [Cmpd 279]	66 ng/mL	77 ng/mL	20 ng/mL			
CSc1ccc(-c2nc(NCCCN3CCCC3)nc(C(Cl)(Cl)Cl)n2)cc1 [Cmpd 44]	462 ng/mL	638 ng/mL	204 ng/mL			
CN1CCC(Nc2nc(-c3ccc(C(Cl)(Cl)Cl)cc3)nc(C(Cl)(Cl)Cl)n2)CC1 [Cmpd 61]	570 ng/mL	556 ng/mL	376 ng/mL			
CC(C)(C)c1ccc(-c2nc(N3CCCNCC3)nc(C(Cl)(Cl)Cl)n2)cc1 [Cmpd 115]	357 ng/mL	360 ng/mL	242 ng/mL			
CSc1ccc(-c2nc(NCC3CCN(C)CC3)nc(C(Cl)(Cl)Cl)n2)cc1 [Cmpd 509]				0.294 µg/mL	0.167 µg/mL	0.098 µg/mL
NC1(CNc2nc(-c3ccc(Cl)cc3)nc(C(Cl)(Cl)Cl)n2)CCOCC1 [Cmpd 333]	26 ng/mL	40 ng/mL	15 ng/mL			
CCN1CCCC(Nc2nc(Cc3ccc(OC)cc3)nc(C(Cl)(Cl)Cl)n2)C1 (stereo not drawn) [Cmpd 81]	633 ng/mL	992 ng/mL	601 ng/mL			
CCN(CC)CCNc1nc(Nc2ccc(OC)nc2)nc(C(Cl)(Cl)Cl)n1 [Cmpd 342]	335 ng/mL	398 ng/mL	149 ng/mL			
OCCN1CCN(c2nc(Nc3ccc(OC(F)(F)F)cc3)nc(C(Cl)(Cl)Cl)n2)CC1 [Cmpd 302]	166 ng/mL	299 ng/mL	107 ng/mL			
CN1CCCN(c2nc(-c3ccc(Cl)cc3)nc(C(Cl)(Cl)Cl)n2)CC1 [Cmpd 287]	143 ng/mL	232 ng/mL	60 ng/mL			
CN1CCN(c2nc(-c3cccc(Cl)c3)nc(C(Cl)(Cl)Cl)n2)CC1 [Cmpd 436]				0.155 µg/mL	0.158 µg/mL	0.019 µg/mL
COc1ccc(Nc2nc(NCC(C)(C)N)nc(C(Cl)(Cl)Cl)n2)cn1 [Cmpd 403]				0.134 µg/mL	0.203 µg/mL	0.078 µg/mL
CSc1ccc(-c2nc(NCc3cccnc3)nc(C(Cl)(Cl)Cl)n2)cc1 [Cmpd 160]	789 ng/mL	896 ng/mL	238 ng/mL			
CC(C)(C)c1ccc(-c2nc(NCCc3ccncc3)nc(C(Cl)(Cl)Cl)n2)cc1 [Cmpd 148]	621 ng/mL	671 ng/mL	151 ng/mL			
